Measured values published in patent US20230382951A1, “BRAIN PENETRATING PEPTIDES” (BOARD OF REGENTS, THE UNIVERSITY OF TEXAS SYSTEM, priority 2020, published 2023).

Tested on: hCMEC/D3 cells
Conditions: third round of biopanning
Experimental: CX7C-presenting M13 phage biopanning against hCMEC/D3 cells. A M13 phage CX7C library was used to pan against established BBB model hCMEC/D3 in vitro to identify potential brain-penetrating peptides. hCMEC/D3 cells (CELLutions Biosystems Inc.) were cultured in EndoGRO medium (Millipore, #SCME004) on Collagen I (Fisher Scientific, #44310001) coated Culture Ware (150 μg/ml, coated for at least 1 h at 37° C.)^110. […] To establish the cell monolayer on the transwell plate setup, hCMEC/D3 cells (passage 27-30) were seeded on a pre-coated collagen I (100 μg/ml for 3 h) coated 12-well transwell plate (Corning, #3401) at a density of 1.5-2.0*10^5 cells/cm^2 for 12-15 days^49. Transepithelial electrical resistance measurements and permeability assay with small tracer molecule sodium fluorescein were used to monitor the tightness of hCMEC/D3 monolayer. Prior to biopanning, hCMEC/D3 cells were incubated in fetal bovine serum depleted medium for 1 h at 37° C., and then 10^11 plaque forming units (pfu) of M13 phage CX7C library (NEB, #E8120S) was added to the donor compartment of the transwell and incubated for 1 h at 37° C. […]
The NGS data from two replicates of MiSeq run were analyzed on Stampede, a supercomputer run on Texas Advanced Computing Center at UT-Austin. First, to confirm the sequence quality and trim the low-quality sequence reads, fastqc and fastx_toolkit were used on the dataset. […]

Substance: NAGHLSQ [Pep-1]
- frequency relative to second most frequent peptide Pep-2: approximately five-fold higher
